In US10822450B2, “Poly(glycerol sebacate)-interleukin inhibitor copolymers and methods of making and use” (THE SECANT GROUP, LLC, priority 2017, dated 2020):

Format: physicochemical
Settings: pH 11
Procedure: A PGS-aspirin copolymer from Example 6 was thermoset by heating to 130° C. at a pressure of 10 Torr for 72 hours. Three thin cylindrical disks, each having a diameter of 10 mm, were punched out of the resultant thin film, which was about 1 mm thick.
Each disk was placed in 10 mL of 0.09 M phosphate-buffered saline (PBS) at a pH of 11 and a temperature of 37° C. for four weeks. At 1-week intervals, the solution was removed and tested for salicylic acid content by UV analysis at a wavelength of 303 nm and for pH. Each sample was rinsed three times with distilled water and vacuum dried prior to being placed in fresh PBS.

**Q.** For PGS-aspirin copolymer [Example 8], which “disk integrity during degradation” value is on record?
**A.** Its value is “began to fall apart”.
